Consider four compounds from ChEMBL document CHEMBL1124940, “N-[(arylmethoxy)phenyl] carboxylic acids, hydroxamic acids, tetrazoles, and sulfonyl carboxamides. Potent orally active leukotriene D4 antagonists of novel structure” (J Med Chem, 1990).

Each structure is given as a SMILES string. Some results are limits rather than exact numbers.

In data set [1] the test system is Cavia porcellus. As to the kind of experiment: Inhibition of LTD4-induced broncho constriction in Guinea pig after intragastrical administration of a dose of 3 mg/kg. It counts as functional. Particulars: po, route intragastric.
Data set [2] relates to Cavia porcellus. Description: In vitro inhibition of LTD4-induced bronchoconstriction into isolated guinea pig trachea by injecting intragastrically. The class given is functional. Particulars: po.
Data set [3] concerns the target T1, Polyunsaturated fatty acid 5-lipoxygenase (Rattus norvegicus, UniProt P12527).
T1 sequence (P12527 whole entry): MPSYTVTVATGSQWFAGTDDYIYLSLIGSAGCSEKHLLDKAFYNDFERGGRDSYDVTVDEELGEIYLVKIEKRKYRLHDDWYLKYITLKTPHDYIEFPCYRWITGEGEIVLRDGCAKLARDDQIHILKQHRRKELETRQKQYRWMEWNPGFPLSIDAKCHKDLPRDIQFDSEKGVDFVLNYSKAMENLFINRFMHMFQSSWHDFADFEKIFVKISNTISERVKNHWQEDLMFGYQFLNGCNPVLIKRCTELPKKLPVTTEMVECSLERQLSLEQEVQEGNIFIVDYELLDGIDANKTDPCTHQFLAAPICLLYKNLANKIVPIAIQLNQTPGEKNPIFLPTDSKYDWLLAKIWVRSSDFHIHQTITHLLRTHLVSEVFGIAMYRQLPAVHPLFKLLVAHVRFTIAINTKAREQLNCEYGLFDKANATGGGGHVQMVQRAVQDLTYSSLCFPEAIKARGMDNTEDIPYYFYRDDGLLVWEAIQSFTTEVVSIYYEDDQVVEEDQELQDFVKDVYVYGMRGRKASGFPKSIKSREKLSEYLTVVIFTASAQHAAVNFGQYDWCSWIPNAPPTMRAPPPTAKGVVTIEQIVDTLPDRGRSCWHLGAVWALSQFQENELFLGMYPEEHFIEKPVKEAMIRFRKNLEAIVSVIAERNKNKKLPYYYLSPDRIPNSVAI
As to the kind of experiment: Concentration that produces 50% inhibition of A-23187-stimulated radiolabeled 5-HETE and TXB2 synthesis by PMN 5-lipoxygenase. The class given is functional.

The test system of data set [4] is Cavia porcellus. Description: Tested for the inhibition of ovalbumin- induced bronchoconstriction in Guinea pig, injected intragastrically, dose of 10 mg/kg. Particulars: po, route intragastric. It counts as functional.
The species entered for data set [5] is Cavia porcellus. As to the kind of experiment: Dose of antagonist that produces 50% inhibition of ovalbumin-induced bronchoconstriction. It counts as functional.
The test system of the next data set is Rattus norvegicus. Description: Antiinflammatory effect was studied in a rat carrageenan paw edema (CE) assay at a dose of 50 mg/kg. It counts as functional. (The carrageenan paw model is a standard test of acute inflammation.)
Data set [6] relates to Cavia porcellus. As to the kind of experiment: Tested for the inhibition of LTD4-induced broncho constriction in Guinea pig, injected intraduodenally at a dose of 25 mg/kg. The class given is functional. Particulars: route intraduodenal.
Data set [7] concerns Cavia porcellus. Description: Tested for the inhibition of LTD4-induced bronchoconstriction in Guinea pig, injected intraduodenally, dose is 3 mg/kg. It counts as functional. Particulars: route intraduodenal.
In data set [8] the test system is Cavia porcellus. As to the kind of experiment: Tested for the inhibition of ovalbumin- induced bronchoconstriction in Guinea pig, injected intragastrically, dose of 25 mg/kg. The class given is functional. Particulars: po, route intragastric.
Data set [9] relates to Cavia porcellus. Description: In vitro inhibition of LTD4-induced bronchoconstriction into isolated guinea pig trachea by injecting intraduodenally. Particulars: intraduodenal. It counts as functional.
The subject of data set [10] is Cavia porcellus. Description: Inhibition of LTD4-induced broncho constriction in Guinea pig after intragastrical administration of a dose of 25 mg/kg. Particulars: po, route intragastric. The class given is functional.
Data set [11] concerns Cavia porcellus. As to the kind of experiment: Tested for the inhibition of LTD4-induced bronchoconstriction in Guinea pig, injected intragastrically, dose is 3 mg/kg. It counts as functional. The settings on record: po, route intragastric.
Data set [12] has as its system Cavia porcellus. Description: Tested for the inhibition of LTD4-induced bronchoconstriction in Guinea pig, injected intraduodenally, dose is 10 mg/kg. The class given is functional. Particulars: route intraduodenal.
The test system of data set [13] is Cavia porcellus. As to the kind of experiment: Inhibition of ovalbumin-induced broncho constriction in Guinea pig after intraduodenal administration of a dose of 10 mg/kg. It counts as functional.
The subject of data set [14] is Cavia porcellus. As to the kind of experiment: In vitro inhibition of ovalbumin-induced bronchoconstriction after intragastrical administration 120 min before agonist into isolated guinea pig trachea. The class given is functional. The settings on record: po.
Data set [15] has as its system Cavia porcellus. As to the kind of experiment: -log dissociation constant was determined In vitro in isolated guinea pig trachea after intraduodenal administration (before 10 min). The class given is ADME, organism-based. The settings on record: in vivo, other.
Data set [16] relates to Cavia porcellus. As to the kind of experiment: In vitro inhibition of LTD4-induced bronchoconstriction after intragastrical administration 120 min before agonist into isolated guinea pig trachea. The class given is functional. Particulars: po.
The subject of data set [17] is Cavia porcellus. Description: In vitro LTD4-induced bronchoconstriction in isolated guinea pig trachea by injecting intraduodenally. The class given is functional. The settings on record: intraduodenal.
In data set [18] the test system is Cavia porcellus. As to the kind of experiment: In vitro inhibition of ovalbumin-induced bronchoconstriction in isolated guinea pig trachea by injecting intraduodenally. The class given is functional. The settings on record: intraduodenal.
Data set [19] has as its system Cavia porcellus. As to the kind of experiment: Tested for the inhibition of LTD4-induced bronchoconstriction in Guinea pig, injected intragastrically, dose of 10 mg/kg. It counts as functional. The settings on record: po, route intragastric.
The test system of data set [20] is Cavia porcellus. As to the kind of experiment: Tested for the inhibition of ovalbumin- induced bronchoconstriction in Guinea pig, injected intraduodenally, dose of 3 mg/kg. The class given is functional. Particulars: route intraduodenal.
Data set [21] relates to Cavia porcellus. Description: Tested for the inhibition of LTD4-induced bronchoconstriction in Guinea pig, injected intragastrically, dose of 3 mg/kg. The class given is functional. Particulars: po, route intragastric.
In data set [22] the test system is Cavia porcellus. As to the kind of experiment: Tested for the inhibition of ovalbumin- induced bronchoconstriction in Guinea pig, injected intragastrically, dose of 10 mg/kg. It counts as functional. Particulars: po, route intragastric.
Data set [23] has as its system Cavia porcellus. Description: Tested for the inhibition of ovalbumin- induced bronchoconstriction in Guinea pig, injected intraduodenally, dose is 25 mg/kg. It counts as functional. The settings on record: route intraduodenal.

What is called inhibition in vivo is how much of the control response was suppressed. A high value points to a response far below the control. The ED50 is the dose that gives a 50% effect, or the effect in half of the subjects. A higher ED50 goes with a need for a large dose. For orientation: IC50 means the concentration at which inhibition is half-maximal. Low readings indicate greater potency, high ones weaker potency. In the case of `c1cc(Cc2nnn[nH]2)cc(OCc2ccc3ccccc3n2)c1`, the inhibition in vivo at 3 mg/kg in the data set on Cavia porcellus [1] turned out to be 50%; in the data set with Cavia porcellus [7] it was 53%. Moreover, the results for the ED50 in the data set with Cavia porcellus [2], in the data set filed under Cavia porcellus [5] and in the data set on Cavia porcellus [9] were 3 mg/kg, 6.7 mg/kg and 3 mg/kg, respectively. Also, the IC50 in [3] came to 3.9 µM. The compound also gave an inhibition in vivo at 10 mg/kg with Cavia porcellus [4] of 49%. The compound further returned an inhibition in vivo at 50 mg/kg with Rattus norvegicus of 30%. The inhibition in vivo at 25 mg/kg was less than 94% in the data set with Cavia porcellus [6], less than 31% in the data set on Cavia porcellus [8] and less than 99% in the data set with Cavia porcellus [10].

In the data set on Cavia porcellus [11], `Cc1ccc(S(=O)(=O)NC(=O)c2cccc(OCc3ncc4ccccc4n3)c2)cc1` returned an inhibition in vivo at 3 mg/kg of 60%. Also, the results for the inhibition in vivo at 25 mg/kg in the data set with Cavia porcellus [6] and in the data set on Cavia porcellus [10] were 85% and 99%, respectively. For the same compound, the figures for the inhibition in vivo at 10 mg/kg in the data set with Cavia porcellus [12] and in the data set with Cavia porcellus [13] were 50% and 66%, respectively.

Broadly, the pKb is the negative decadic logarithm of the Kb, by convention in mol/L. High values mean a low Kb, low ones a high Kb. For `CCCc1c(OCCCCc2nnn[nH]2)ccc(C(C)=O)c1O` [TOMELUKAST], the ED50 came out at 38 mg/kg with Cavia porcellus [14], 32 mg/kg with Cavia porcellus [16], 6 mg/kg with Cavia porcellus [17] and 19 mg/kg with Cavia porcellus [18]. The same compound had a pKb in the data set with Cavia porcellus [15] of 6.55.

Regarding `Cc1ccc(S(=O)(=O)NC(=O)Cc2cccc(OCc3nc4ccccc4s3)c2)cc1`, the inhibition in vivo at 10 mg/kg in the data set with Cavia porcellus [19] is less than 55%; with Cavia porcellus [22] it was 42%. For the same compound, the inhibition in vivo at 3 mg/kg in the data set on Cavia porcellus [20] turned out to be 44%; in the data set on Cavia porcellus [21] it was 80%; with Cavia porcellus [7], 83%. Also, the inhibition in vivo at 25 mg/kg was less than 97% with Cavia porcellus [6], 78% in the data set with Cavia porcellus [23] and less than 70% in the data set with Cavia porcellus [8].
